Assay results: ChEMBL document CHEMBL5614409, “Discovery of potent HIV-1 NNRTIs by CuAAC click-chemistry-based miniaturized synthesis, rapid screening and structure optimization” (Eur J Med Chem, 2024)

Target: Human immunodeficiency virus type 1 reverse transcriptase (Human immunodeficiency virus 1) (UniProt Q72547)
Assay: Inhibition of HIV-1 reverse transcriptase incubated for 2 hrs in presence of template and viral nucleotides by ELISA relative to control
Parameters: concentration or dose not given beside the values
Details: concentration not given here

Row | Structure (SMILES) | inhibition
1 | Cc1cc(C#N)cc(C)c1Oc1ccnc(NC2CCN(Cc3cn(Cc4ccc(S(N)(=O)=O)cc4)nn3)CC2)n1 | 89.3%
2 | Cc1cc(C#N)cc(C)c1Oc1ccnc(NC2CCN(Cc3cn(Cc4ccccc4C#N)nn3)CC2)n1 | 91.3%

Tested on: Human immunodeficiency virus 1
Assay: Antiviral activity against HIV1 IIIB infected in MT4 cells assessed as reduction in virus induced cytopathic effect incubated for 5 days by MTT method
Assay type: functional, organism-based
Details: Human immunodeficiency virus 1, IIIB, MT4, 120 h

Row | Structure (SMILES) | EC50
3 | Cc1cc(/C=C/C#N)cc(C)c1Oc1nc(NC2CCN(Cc3cn(CC(=O)NC4CC4)nn3)CC2)nc2ccsc12 | 6 nM
4 | CCNC(=O)Cn1cc(CN2CCC(Nc3nc(Oc4c(C)cc(/C=C/C#N)cc4C)c4sccc4n3)CC2)nn1 | 5 nM
5 | CNC(=O)Cn1cc(CN2CCC(Nc3nc(Oc4c(C)cc(/C=C/C#N)cc4C)c4sccc4n3)CC2)nn1 | 4 nM
6 | Cc1cc(/C=C/C#N)cc(C)c1Oc1nc(NC2CCN(Cc3cn(CC(=O)NC4CCOCC4)nn3)CC2)nc2ccsc12 | 5 nM
7 | Cc1ccnc2c1NC(=O)c1cccnc1N2C1CC1 [NEVIRAPINE] | 151 nM
8 | Cc1cc(/C=C/C#N)cc(C)c1Oc1nc(NC2CCN(Cc3cn(CC(N)=O)nn3)CC2)nc2ccccc12 | 6 nM
9 | Cc1cc(C#N)cc(C)c1Oc1ccnc(NC2CCN(Cc3cn(Cc4ccccc4C#N)nn3)CC2)n1 | 2 nM

Tested on: not listed separately
Assay: Cytotoxicity against human MT4 cells assessed as reduction in cell viability incubated for 5 days by MTT method
Assay type: toxicity, cell-based
Details: time 5 day

Row | Structure (SMILES) | CC50 at 120 h
10 | Cc1cc(/C=C/C#N)cc(C)c1Oc1nc(NC2CCN(Cc3cn(CC(=O)NC4CC4)nn3)CC2)nc2ccsc12 | 18200 nM
11 | CCNC(=O)Cn1cc(CN2CCC(Nc3nc(Oc4c(C)cc(/C=C/C#N)cc4C)c4sccc4n3)CC2)nn1 | 17500 nM
12 | CNC(=O)Cn1cc(CN2CCC(Nc3nc(Oc4c(C)cc(/C=C/C#N)cc4C)c4sccc4n3)CC2)nn1 | 18400 nM
13 | Cc1cc(/C=C/C#N)cc(C)c1Oc1nc(NC2CCN(Cc3cn(CC(=O)NC4CCOCC4)nn3)CC2)nc2ccsc12 | 15600 nM
14 | Cc1ccnc2c1NC(=O)c1cccnc1N2C1CC1 [NEVIRAPINE] | > 15000 nM
15 | Cc1cc(/C=C/C#N)cc(C)c1Oc1nc(NC2CCN(Cc3cn(CC(N)=O)nn3)CC2)nc2ccccc12 | 18100 nM
16 | Cc1cc(C#N)cc(C)c1Oc1ccnc(NC2CCN(Cc3cn(Cc4ccccc4C#N)nn3)CC2)n1 | 4240 nM

Tested on: not listed separately
Assay: Selectivity index, ratio of CC50 for human MT4 cells to EC50 for antiviral activity against HIV1 IIIB infected in MT4 cells
Assay type: toxicity, cell-based
Details: read-out: Ratio CC50/EC50

Row | Structure (SMILES) | selectivity ratio
17 | Cc1cc(/C=C/C#N)cc(C)c1Oc1nc(NC2CCN(Cc3cn(CC(=O)NC4CC4)nn3)CC2)nc2ccsc12 | 2940
18 | CCNC(=O)Cn1cc(CN2CCC(Nc3nc(Oc4c(C)cc(/C=C/C#N)cc4C)c4sccc4n3)CC2)nn1 | 3640
19 | CNC(=O)Cn1cc(CN2CCC(Nc3nc(Oc4c(C)cc(/C=C/C#N)cc4C)c4sccc4n3)CC2)nn1 | 4720
20 | Cc1cc(/C=C/C#N)cc(C)c1Oc1nc(NC2CCN(Cc3cn(CC(=O)NC4CCOCC4)nn3)CC2)nc2ccsc12 | 3060
21 | Cc1cc(/C=C/C#N)cc(C)c1Oc1nc(NC2CCN(Cc3cn(CC(N)=O)nn3)CC2)nc2ccccc12 | 3300
22 | Cc1cc(C#N)cc(C)c1Oc1ccnc(NC2CCN(Cc3cn(Cc4ccccc4C#N)nn3)CC2)n1 | 2020

Tested on: Human immunodeficiency virus 1
Assay: Antiviral activity against HIV1 IIIB harboring L100I mutant infected in MT4 cells assessed as reduction in virus induced cytopathic effect incubated for 5 days by MTT method
Assay type: functional, organism-based
Details: Human immunodeficiency virus 1, IIIB, MT4, 120 h

Row | Structure (SMILES) | EC50
23 | Cc1cc(/C=C/C#N)cc(C)c1Oc1nc(NC2CCN(Cc3cn(CC(=O)NC4CC4)nn3)CC2)nc2ccsc12 | 17 nM
24 | CCNC(=O)Cn1cc(CN2CCC(Nc3nc(Oc4c(C)cc(/C=C/C#N)cc4C)c4sccc4n3)CC2)nn1 | 12 nM
25 | CNC(=O)Cn1cc(CN2CCC(Nc3nc(Oc4c(C)cc(/C=C/C#N)cc4C)c4sccc4n3)CC2)nn1 | 6 nM
26 | Cc1cc(/C=C/C#N)cc(C)c1Oc1nc(NC2CCN(Cc3cn(CC(=O)NC4CCOCC4)nn3)CC2)nc2ccsc12 | 9 nM
27 | Cc1cc(/C=C/C#N)cc(C)c1Oc1nc(NC2CCN(Cc3cn(CC(N)=O)nn3)CC2)nc2ccccc12 | 17 nM
28 | Cc1cc(C#N)cc(C)c1Oc1ccnc(NC2CCN(Cc3cn(Cc4ccccc4C#N)nn3)CC2)n1 | 231 nM

Tested on: Human immunodeficiency virus 1
Assay: Antiviral activity against HIV1 IIIB harboring K103 N mutant infected in MT4 cells assessed as reduction in virus induced cytopathic effect incubated for 5 days by MTT method
Assay type: functional, organism-based
Details: Human immunodeficiency virus 1, IIIB, MT4, 120 h

Row | Structure (SMILES) | EC50
29 | CCNC(=O)Cn1cc(CN2CCC(Nc3nc(Oc4c(C)cc(/C=C/C#N)cc4C)c4sccc4n3)CC2)nn1 | 6 nM
30 | CNC(=O)Cn1cc(CN2CCC(Nc3nc(Oc4c(C)cc(/C=C/C#N)cc4C)c4sccc4n3)CC2)nn1 | 5 nM
31 | Cc1cc(/C=C/C#N)cc(C)c1Oc1nc(NC2CCN(Cc3cn(CC(=O)NC4CCOCC4)nn3)CC2)nc2ccsc12 | 4 nM
32 | Cc1cc(/C=C/C#N)cc(C)c1Oc1nc(NC2CCN(Cc3cn(CC(N)=O)nn3)CC2)nc2ccccc12 | 8 nM
33 | Cc1cc(C#N)cc(C)c1Oc1ccnc(NC2CCN(Cc3cn(Cc4ccccc4C#N)nn3)CC2)n1 | 15 nM

Tested on: Human immunodeficiency virus 1
Assay: Antiviral activity against HIV1 IIIB harboring Y181C mutant infected in MT4 cells assessed as reduction in virus induced cytopathic effect incubated for 5 days by MTT method
Assay type: functional, organism-based
Details: Human immunodeficiency virus 1, IIIB, MT4, 120 h

Row | Structure (SMILES) | EC50
34 | Cc1cc(/C=C/C#N)cc(C)c1Oc1nc(NC2CCN(Cc3cn(CC(=O)NC4CC4)nn3)CC2)nc2ccsc12 | 23 nM
35 | CCNC(=O)Cn1cc(CN2CCC(Nc3nc(Oc4c(C)cc(/C=C/C#N)cc4C)c4sccc4n3)CC2)nn1 | 25 nM
36 | CNC(=O)Cn1cc(CN2CCC(Nc3nc(Oc4c(C)cc(/C=C/C#N)cc4C)c4sccc4n3)CC2)nn1 | 16 nM
37 | Cc1cc(/C=C/C#N)cc(C)c1Oc1nc(NC2CCN(Cc3cn(CC(=O)NC4CCOCC4)nn3)CC2)nc2ccsc12 | 19 nM
38 | Cc1cc(/C=C/C#N)cc(C)c1Oc1nc(NC2CCN(Cc3cn(CC(N)=O)nn3)CC2)nc2ccccc12 | 33 nM
39 | Cc1cc(C#N)cc(C)c1Oc1ccnc(NC2CCN(Cc3cn(Cc4ccccc4C#N)nn3)CC2)n1 | 27 nM

Tested on: Human immunodeficiency virus 1
Assay: Antiviral activity against HIV1 IIIB harboring Y188L mutant infected in MT4 cells assessed as reduction in virus induced cytopathic effect incubated for 5 days by MTT method
Assay type: functional, organism-based
Details: Human immunodeficiency virus 1, IIIB, MT4, 120 h

Row | Structure (SMILES) | EC50
40 | Cc1cc(/C=C/C#N)cc(C)c1Oc1nc(NC2CCN(Cc3cn(CC(=O)NC4CC4)nn3)CC2)nc2ccsc12 | 88 nM
41 | CCNC(=O)Cn1cc(CN2CCC(Nc3nc(Oc4c(C)cc(/C=C/C#N)cc4C)c4sccc4n3)CC2)nn1 | 80 nM
42 | CNC(=O)Cn1cc(CN2CCC(Nc3nc(Oc4c(C)cc(/C=C/C#N)cc4C)c4sccc4n3)CC2)nn1 | 44 nM
43 | Cc1cc(/C=C/C#N)cc(C)c1Oc1nc(NC2CCN(Cc3cn(CC(=O)NC4CCOCC4)nn3)CC2)nc2ccsc12 | 40 nM
44 | Cc1cc(/C=C/C#N)cc(C)c1Oc1nc(NC2CCN(Cc3cn(CC(N)=O)nn3)CC2)nc2ccccc12 | 81 nM
45 | Cc1cc(C#N)cc(C)c1Oc1ccnc(NC2CCN(Cc3cn(Cc4ccccc4C#N)nn3)CC2)n1 | 366 nM

Tested on: Human immunodeficiency virus 1
Assay: Antiviral activity against HIV1 IIIB harboring E138K mutant infected in MT4 cells assessed as reduction in virus induced cytopathic effect incubated for 5 days by MTT method
Assay type: functional, organism-based
Details: Human immunodeficiency virus 1, IIIB, MT4, 120 h

Row | Structure (SMILES) | EC50
46 | Cc1cc(/C=C/C#N)cc(C)c1Oc1nc(NC2CCN(Cc3cn(CC(=O)NC4CC4)nn3)CC2)nc2ccsc12 | 26 nM
47 | CCNC(=O)Cn1cc(CN2CCC(Nc3nc(Oc4c(C)cc(/C=C/C#N)cc4C)c4sccc4n3)CC2)nn1 | 33 nM
48 | CNC(=O)Cn1cc(CN2CCC(Nc3nc(Oc4c(C)cc(/C=C/C#N)cc4C)c4sccc4n3)CC2)nn1 | 14 nM
49 | Cc1cc(/C=C/C#N)cc(C)c1Oc1nc(NC2CCN(Cc3cn(CC(=O)NC4CCOCC4)nn3)CC2)nc2ccsc12 | 20 nM
50 | Cc1cc(/C=C/C#N)cc(C)c1Oc1nc(NC2CCN(Cc3cn(CC(N)=O)nn3)CC2)nc2ccccc12 | 23 nM
51 | Cc1cc(C#N)cc(C)c1Oc1ccnc(NC2CCN(Cc3cn(Cc4ccccc4C#N)nn3)CC2)n1 | 27 nM

Tested on: Human immunodeficiency virus 1
Assay: Antiviral activity against HIV1 IIIB harboring F227L/V106A double mutant infected in MT4 cells assessed as reduction in virus induced cytopathic effect incubated for 5 days by MTT method
Assay type: functional, organism-based
Details: Human immunodeficiency virus 1, IIIB, MT4, 120 h

Row | Structure (SMILES) | EC50
52 | Cc1cc(/C=C/C#N)cc(C)c1Oc1nc(NC2CCN(Cc3cn(CC(=O)NC4CC4)nn3)CC2)nc2ccsc12 | 159 nM
53 | CCNC(=O)Cn1cc(CN2CCC(Nc3nc(Oc4c(C)cc(/C=C/C#N)cc4C)c4sccc4n3)CC2)nn1 | 168 nM
54 | CNC(=O)Cn1cc(CN2CCC(Nc3nc(Oc4c(C)cc(/C=C/C#N)cc4C)c4sccc4n3)CC2)nn1 | 66 nM
55 | Cc1cc(/C=C/C#N)cc(C)c1Oc1nc(NC2CCN(Cc3cn(CC(=O)NC4CCOCC4)nn3)CC2)nc2ccsc12 | 107 nM
56 | Cc1cc(/C=C/C#N)cc(C)c1Oc1nc(NC2CCN(Cc3cn(CC(N)=O)nn3)CC2)nc2ccccc12 | 499 nM
57 | Cc1cc(C#N)cc(C)c1Oc1ccnc(NC2CCN(Cc3cn(Cc4ccccc4C#N)nn3)CC2)n1 | 1040 nM

Tested on: Human immunodeficiency virus 1
Assay: Antiviral activity against HIV1 IIIB harboring RES056 mutant infected in MT4 cells assessed as reduction in virus induced cytopathic effect incubated for 5 days by MTT method
Assay type: functional, organism-based
Details: Human immunodeficiency virus 1, IIIB, MT4, 120 h

Row | Structure (SMILES) | EC50
58 | Cc1cc(/C=C/C#N)cc(C)c1Oc1nc(NC2CCN(Cc3cn(CC(=O)NC4CC4)nn3)CC2)nc2ccsc12 | 191 nM
59 | CCNC(=O)Cn1cc(CN2CCC(Nc3nc(Oc4c(C)cc(/C=C/C#N)cc4C)c4sccc4n3)CC2)nn1 | 181 nM
60 | CNC(=O)Cn1cc(CN2CCC(Nc3nc(Oc4c(C)cc(/C=C/C#N)cc4C)c4sccc4n3)CC2)nn1 | 99 nM
61 | Cc1cc(/C=C/C#N)cc(C)c1Oc1nc(NC2CCN(Cc3cn(CC(=O)NC4CCOCC4)nn3)CC2)nc2ccsc12 | 101 nM
62 | Cc1ccnc2c1NC(=O)c1cccnc1N2C1CC1 [NEVIRAPINE] | > 15000 nM
63 | Cc1cc(/C=C/C#N)cc(C)c1Oc1nc(NC2CCN(Cc3cn(CC(N)=O)nn3)CC2)nc2ccccc12 | 187 nM
64 | Cc1cc(C#N)cc(C)c1Oc1ccnc(NC2CCN(Cc3cn(Cc4ccccc4C#N)nn3)CC2)n1 | > 4240 nM
